Test results taken from PubChem BioAssay (NCI).
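1) Cells in 96-well plates. 2) Compound, 48 h, 5 concentrations. 3) Linear interpolation between surrounding doses. 4) Unreached endpoint = highest concentration. TGI is the concentration that stops growth completely.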

Key:
Test in all cases: NCI-60 cell line screen, 48 h
SK-MEL-2 melanoma = test system: SK-MEL-2 melanoma
MOLT-4 leukemia = test system: MOLT-4 leukemia
SK-MEL-28 melanoma = test system: SK-MEL-28 melanoma
CAKI-1 renal = test system: CAKI-1 renal
COLO 205 colon = test system: COLO 205 colon
HL-60(TB) leukemia = test system: HL-60(TB) leukemia
M14 melanoma = test system: M14 melanoma
NCI/ADR-RES ovarian = test system: NCI/ADR-RES ovarian
PC-3 prostate = test system: PC-3 prostate
HOP-92 NSCLC = test system: HOP-92 NSCLC

Structure (SMILES)	TGI (SK-MEL-2 melanoma) [µM]	TGI (MOLT-4 leukemia) [µM]	TGI (SK-MEL-28 melanoma) [µM]	TGI (CAKI-1 renal) [µM]	TGI (COLO 205 colon) [µM]	TGI (HL-60(TB) leukemia) [µM]	TGI (M14 melanoma) [µM]	TGI (NCI/ADR-RES ovarian) [µM]	TGI (PC-3 prostate) [µM]	TGI (HOP-92 NSCLC) [µM]
C=CC(OC(C)=O)c1ccc(OC(C)=O)cc1 (stereo not given)	12	> 44	28.6	10	12.9	18.6	22.9	54.3	7.82	22.8
NNC(=O)Cn1ccnn1	> 100	> 100	> 100	> 100	> 100	> 100	> 100	> 100	> 100	> 100
CC1CN=C(c2ccc(-c3nc(-c4ccc(C5=NCC(C)N5)cc4)nc(N(C)C)n3)cc2)N1 (stereo not given)	4.05	3.79	8.12	32	2.38	6.88	8.68	56.4	4.42	11.3
CC(=O)Nc1ccc(/C=C2/NC(=S)N(/C=C3\C(=O)Oc4ccccc4C3=O)C2=O)cc1	> 100	> 100	> 100	> 100	> 100	> 100	> 100	> 100	> 100	> 100
COC(=O)C1CC23C=CCN4CC(C2C)C2(c5ccccc5NC12)C43 (stereo not given)	> 100	> 100	> 100	> 100	> 100	> 100	> 100	> 100	> 100	> 100
CC(C)(C)C(=O)N1CCN(C=O)C1=S	> 100	> 100	> 100	> 100	> 100	> 100	> 100	> 100	> 100	52.9
CCN(CCCl)c1cccc(NC(=O)c2ccc(C(=O)Nc3cccc(CN(C)C)c3)cc2)c1	0.0856	1.15	0.68	1.58	0.24	12.7	0.86	> 100	1.02	1.6
COC1(OC)C=CC(=O)C=C1	21.5	> 95.2	4.16	11.6	28.1	15.6	11.5	13.7	13.9	11
COc1cc(C)cc2c(-c3c(O)cc(O)c4c3C[C@H](C)N[C@H]4C)cc(-c3cc(-c4c(O)cc(O)c5c4C[C@H](C)N[C@H]5C)c4cc(C)cc(OC)c4c3O)c(O)c12	> 100	> 100	> 100	> 100	> 100	> 100	> 100	> 100	> 100	> 100
O=[N+]([O-])c1ccc2c(c1)n1c(N3CCCC3)[n+]3ccccc3c1c1c3cccc[n+]3c(N3CCCC3)n21	> 100	> 100	> 100	> 100	> 100	94.1	> 100	> 100	> 100	> 100
C=C(CCOC)CCC1CCCCC(=C)[C@H]1O (stereo not given in full)	> 100	> 100	> 100	> 100	> 100	> 100	> 100	> 100	> 100	> 100
CC(=O)O[C@H]1CCC2[C@@H]3CCC4NC(=O)C(C#N)C[C@]4(C)C3CC[C@@]21C (stereo not given in full)	> 10	> 10	> 10	> 10	> 10	> 10	> 10	> 10	> 10	> 10
CC1=NN2C(=N)/C(=C/c3ccccc3)C(=O)N=C2S1	> 100	> 100	> 100	> 100	> 100	> 100	> 100	> 51	> 100	> 100
Cc1c(C#N)c(=N)oc2ccccc12	> 100	> 100	> 100	> 100	> 100	> 100	> 100	> 100	> 100	> 100
Cc1cn(CCOCCOC(=O)NC(CCCNC(N)=O)C(=O)O)c(=O)[nH]c1=O (stereo not given)	> 100	> 100	> 100	> 100	> 100	> 100	> 100	> 100	> 100	> 100
C/C(=N/NC(=S)N1CCN(C(=S)N/N=C(/C)c2ccccn2)CC1)c1ccccn1	> 100	> 100	> 100	> 100	> 100	1.98	38.5	> 45.8	> 100	> 100
CC(C)(CN1CCCCC1)C(/C=C/c1ccccc1)=N\NC(=O)N/N=C(/C=C/c1ccccc1)C(C)(C)CN1CCCCC1	3.73	4.02	3.07	5.61	2.81	2.86	3.19	4.01	7.7	3.76
COC(=O)c1cc(C)ccc1/C=C1\Cc2c(C)cc(C)cc2C1=O	63.7	> 100	> 100	> 89.1	> 100	> 100	> 100	> 100	> 100	25.2
CNC(=O)N(CCC#N)CCCN(C(=O)N(C)C)c1ccccc1	> 100	> 100	> 100	> 100	> 100	> 100	> 100	> 100	> 100	> 100
Cc1nc2cccc(F)c2c(=O)n1-c1nnc(C(F)(F)F)s1	> 10	> 10	> 10	> 10	> 10	> 10	> 10	> 10	> 10	> 10
CC1CN=C(c2ccc(CN3CCC(C4CCN(Cc5ccc(C6=NCC(C)N6)cc5)CC4)CC3)cc2)N1 (stereo not given)	36	46.5	> 100	> 100	41.3	> 100	44	> 100	35.8	> 100
CC1=CC[C@](C)(O)[C@@]2(C)CC[C@H]3C(=C(C)C)C(=O)C[C@]3(C)C[C@H]12	> 50	25.7	> 50	> 50	> 50	16.4	> 50	> 50	> 50	> 50
COc1cc2c(cc1OC)C(=O)/C(=C/c1ccc(O)cc1)CC2	> 10	> 10	> 10	> 10	> 10	> 10	> 10	> 10	> 10	> 10
Nc1ccc2c(c1)NC(=O)[C@@H]1CCCN1C2=O	> 100	> 100	> 100	> 100	> 100	> 100	> 100	> 100	> 100	> 100
O=C(O)COc1cc(-c2ccccc2)nc2ccccc12	> 100	> 100	> 100	> 100	> 100	> 100	> 100	> 100	> 100	> 100
CC(=O)NC(=O)NC1=NCCC(=O)N1CCc1c[nH]c2ccccc12	> 100	> 100	> 100	> 100	> 100	> 100	> 100	> 100	> 100	> 100
Cc1ccc(/C=N\NC(=O)c2ccncc2)s1	> 100	> 100	> 100	> 100	> 100	> 100	> 100	> 100	> 100	> 100
C[C@]12CC[C@H]3[C@@H](CCC4=C(Br)C(=O)C=C[C@@]43O)[C@@H]1CCC2=O	> 100	> 100	> 100	> 100	> 100	81.6	> 100	> 100	> 100	75.9
